Reference: patent US10294229B2, “Heteroaryl substituted aminopyridine compounds” (BRISTOL-MYERS SQUIBB COMPANY, priority 2015, dated 2019)

Columns and labels:
[1] = Caco-2 Permeability Assay; assay type: in vitro ADME; details: human, Caco-2, test compound 3 μM
Method: Caco-2 Permeability Assay
Thirteen to 27 days prior to assay, Caco-2 cells were seeded onto collagen-coated polycarbonate filter membranes in 24-well transwell plates at a density of 1.45×10^5 cells/cm^2, approximately 4.8×10^4 cells per well. The cells were grown in a culture medium consisting of DMEM supplemented with 10% fetal bovine serum, 10 mM HEPES, 1% nonessential amino acids, 2 mM L-glutamine, 100 U/mL penicillin-G, and 100 μg/mL streptomycin. The culture medium was replaced every 3 days and the cells were maintained at 37° C. in a 95% relative humidity and 5% CO2 atmosphere. The cells were evaluated for tight junction formation just prior to assay. The test compound was solubilized to 10 mM in 100% DMSO and diluted to 3 μM in assay buffer. Permeability studies were initiated by adding 200 μL assay buffer plus/minus compound to the apical transwell compartment and 600 μL assay buffer plus/minus compound to the basolateral compartment of the 24-well transwell low-binding cluster plate. For apical-to-basolateral (A to B) permeability (absorptive direction), buffer containing compound was placed in the apical compartment (donor wells), while buffer alone was placed in the corresponding basolateral compartments (receiver wells). For basolateral-to-apical (B to A) permeability (secretive direction), buffer containing compound was placed in the basolateral compartment (donor wells), while buffer alone was placed in the corresponding apical compartments (receiver wells). Transwells were then incubated for 2 hours at 37° C. in a 95% relative humidity and 5% CO2 atmosphere with gentle agitation. Following incubation, 100 μL was removed from each apical and basolateral compartment and transferred to 96-well low binding plates that had been previously loaded with 100 μL/well of acetonitrile containing 250 nM propranolol, 250 nM diclofenac, and 500 nM tolbutamide as internal standards. The samples were subsequently analyzed by LC-MS/MS to determine concentrations of compound.

[2] = tested on: Human whole blood stimulated with a TLR2 agonist (lipoteichoic acid), IL-6 levels; test: IRAK4 Whole Blood Assay; assay type: cell-based; details: lipoteichoic acid 10 μg/mL
Procedure, shortened: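 IL-6 was quantified by cytometric bead assay in supernatants of human blood (ACD-A) stimulated for 5 h with lipoteichoic acid at 10 μg/mL final. Compound exposure preceded stimulation for 60 min at 37 °C, 5% CO2.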

[3] = target: IRAK4 (Homo sapiens (Human), UniProt Q9NWZ3); test: IRAK4 Inhibition Assay; assay type: biochemical; details: ATP 500 μM; IRAK4 0.6 nM
Chain of IRAK4 (Q9NWZ3 whole entry, species assumed): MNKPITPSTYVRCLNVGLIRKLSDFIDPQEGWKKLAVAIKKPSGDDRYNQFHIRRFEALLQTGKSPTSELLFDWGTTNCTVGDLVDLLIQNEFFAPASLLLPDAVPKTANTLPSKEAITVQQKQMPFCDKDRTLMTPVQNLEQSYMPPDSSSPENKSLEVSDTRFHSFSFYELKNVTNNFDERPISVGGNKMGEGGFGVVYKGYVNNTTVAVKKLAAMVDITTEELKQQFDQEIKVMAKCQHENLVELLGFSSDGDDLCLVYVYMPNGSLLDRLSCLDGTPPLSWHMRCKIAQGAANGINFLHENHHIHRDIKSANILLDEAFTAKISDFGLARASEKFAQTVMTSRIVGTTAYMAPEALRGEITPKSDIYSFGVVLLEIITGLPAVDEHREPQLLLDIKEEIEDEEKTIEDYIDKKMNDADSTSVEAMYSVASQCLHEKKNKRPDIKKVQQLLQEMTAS
Procedure, shortened: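 Readout: electrophoretic (LabChip) separation of fluorescent peptide substrate from phosphorylated product after EDTA quench. Reactions ran 60 min at room temperature with 0.6 nM IRAK4, 1.5 μM peptide and 500 μM ATP; inhibition referenced to no-enzyme (100%) and vehicle (0%) controls.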

SMILES	Papp at 2 h, 3 µM [1] [nm/s]	EC50 ([2]; Homo sapiens) [µM]	IC50 [3] [µM]	EC50 [2] [µM]
CCNC1CCC(c2cn(-c3cnc(-n4ncc5cc(C#N)cnc54)cc3NC(C)C)nn2)CC1 (stereo not shown) [Example 356, 1-(5-(4-((1s,4s)-4-(ethylamino)cyclohexyl)-1H-1,2,3-triazol-1-yl)-4-(isopropylamino)pyridin-2-yl)-1H-pyrazolo[3,4-b]pyridine-5-carbonitrile]	< 15	0.27		
N#Cc1cnc2c(cnn2-c2cc(NC3CC3)c(-c3cn([C@@H]4CNCC[C@H]4O)nn3)cn2)c1 (relative stereo) [Example 207, 1-(4-(cyclopropylamino)-5-(1-((trans)-4-hydroxypiperidin-3-yl)-1H-1,2,3-triazol-4-yl)pyridin-2-yl)-1H-pyrazolo[3,4-b]pyridine-5-carbonitrile]	< 15	1.33		
CC(C)Nc1cc(-n2ncc3cc(C#N)cnc32)ncc1-n1cc(C2CCN(C(=O)CC(C)(C)O)CC2)nn1 [Example 360, 1-(5-(4-(1-(3-hydroxy-3-methylbutanoyl)piperidin-4-yl)-1H-1,2,3-triazol-1-yl)-4-(isopropylamino)pyridin-2-yl)-1H-pyrazolo[3,4-b]pyridine-5-carbonitrile]	36	0.31		
CC(C)Nc1cc(-n2ncc3cc(C#N)cnc32)ncc1-c1cn(C[C@@H](C)O)nn1 [Example 66, (R)-1-(5-(1-(2-hydroxypropyl)-1H-1,2,3-triazol-4-yl)-4-(isopropylamino)pyridin-2-yl)-1H-pyrazolo[3,4-b]pyridine-5-carbonitrile]	59		0.016	
CCCn1cc(-c2cnc(-n3cnc4cc(C#N)cnc43)cc2NC(C)C)nn1 [Example 40, 3-(4-(isopropylamino)-5-(1-propyl-1H-1,2,3-triazol-4-yl)pyridin-2-yl)-3H-imidazo[4,5-b]pyridine-6-carbonitrile]	278		0.003	
CC(C)Nc1cc(-n2ncc3cc(C#N)cnc32)ncc1-c1cn(C2CN(CC(F)F)C2)nn1 [Example 153]	179	0.27		
CC(C)Nc1cc(-n2ncc3cc(C#N)cnc32)ncc1-c1cn([C@@H]2CCCC[C@@]2(C)O)nn1 (relative stereo) [Example 64, 1-(5-(1-((1R,2R)-2-hydroxy-2-methylcyclohexyl)-1H-1,2,3-triazol-4-yl)-4-(isopropylamino)pyridin-2-yl)-1H-pyrazolo[3,4-b]pyridine-5-carbonitrile]	148		0.005	
CC(C)Nc1cc(-n2ncc3cc(C#N)cnc32)ncc1-c1cn([C@H]2CCNC[C@H]2O)nn1 [Example 177, 1-(5-(1-((3R,4S)-3-hydroxypiperidin-4-yl)-1H-1,2,3-triazol-4-yl)-4-(isopropylamino)pyridin-2-yl)-1H-pyrazolo[3,4-b]pyridine-5-carbonitrile]	< 15		0.013	
CCCc1cn(-c2cnc(-n3cnc4cc(C#N)cnc43)cc2NC(C)C)nn1 [Example 278, 3-(4-(isopropylamino)-5-(4-propyl-1H-1,2,3-triazol-1-yl)pyridin-2-yl)-3H-imidazo[4,5-b]pyridine-6-carbonitrile]	237		0.015	
CC(F)Cn1cc(-c2cnc(-n3ncc4cc(C#N)cnc43)cc2NC(C)C)nn1 (single isomer, unassigned; enantiomer 2) [Example 167, 1-(5-(1-(2-fluoropropyl)-1H-1,2,3-triazol-4-yl)-4-(isopropylamino)pyridin-2-yl)-1H-pyrazolo[3,4-b]pyridine-5-carbonitrile, enantiomer 2]			0.007	1.03
CC(C)Nc1cc(-n2cnc3cc(C#N)cnc32)ncc1-c1cn([C@@H]2CCC[C@H]2O)nn1 (single isomer, unassigned) [Example 81]		1.54	0.004	
CC(C)(O)CCc1cn(-c2cnc(-n3ncc4cc(C#N)cnc43)cc2NCCC(F)(F)F)nn1 [Example 362, 1-(5-(4-(3-hydroxy-3-methylbutyl)-1H-1,2,3-triazol-1-yl)-4-((3,3,3-trifluoropropyl)amino)pyridin-2-yl)-1H-pyrazolo[3,4-b]pyridine-5-carbonitrile]		0.44	0.007	
CC(C)Nc1cc(-n2cnc3cc(C#N)cnc32)ncc1-c1cn(CCC(F)(F)F)nn1 [Example 42, 3-(4-(isopropylamino)-5-(1-(3,3,3-trifluoropropyl)-1H-1,2,3-triazol-4-yl)pyridin-2-yl)-3H-imidazo[4,5-b]pyridine-6-carbonitrile]	57		0.005	
CC(F)Cc1cn(-c2cnc(-n3ncc4cc(C#N)cnc43)cc2NC2CC2)nn1 (stereo not shown) [Example 353, 1-(4-(cyclopropylamino)-5-(4-(2-fluoropropyl)-1H-1,2,3-triazol-1-yl)pyridin-2-yl)-1H-pyrazolo[3,4-b]pyridine-5-carbonitrile]			0.011	0.43
CC(C)Nc1cc(-n2cnc3cc(C#N)cnc32)ncc1-c1cn([C@@H]2CCC[C@H]2O)nn1 (single isomer, unassigned) [Example 83]			0.005	0.86
CC(C)Nc1cc(-n2ncc3cc(C#N)cnc32)ncc1-c1cn([C@@H]2CCNC[C@@H]2O)nn1 [Example 186, 1-(5-(1-((3S,4R)-3-hydroxypiperidin-4-yl)-1H-1,2,3-triazol-4-yl)-4-(isopropylamino)pyridin-2-yl)-1H-pyrazolo[3,4-b]pyridine-5-carbonitrile]		1.78	0.016	
CCCn1cc(-c2cnc(-n3cnc4cc(C#N)cnc43)cc2Nc2cnn(CC)c2)nn1 [Example 59]	200			
CC(C)Nc1cc(-n2ncc3cc(C#N)cnc32)ncc1-c1cn(CC(O)C(C)C)nn1 (stereo not shown) [Example 135, 1-(5-(1-(2-hydroxy-3-methylbutyl)-1H-1,2,3-triazol-4-yl)-4-(isopropylamino)pyridin-2-yl)-1H-pyrazolo[3,4-b]pyridine-5-carbonitrile]		1.19	0.004	
CCOC(=O)Cn1cc(-c2cnc(-n3ccc4cncnc43)cc2NC(C)C)nn1 [Example 2, ethyl 2-(4-(4-(isopropylamino)-6-(7H-pyrrolo[2,3-d]pyrimidin-7-yl)pyridin-3-yl)-1H-1,2,3-triazol-1-yl)acetate]		10	0.001	
CC[C@H](O)Cn1cc(-c2cnc(-n3ncc4cc(C#N)cnc43)cc2NC(C)C)nn1 [Example 134, (S)-1-(5-(1-(2-hydroxybutyl)-1H-1,2,3-triazol-4-yl)-4-(isopropylamino)pyridin-2-yl)-1H-pyrazolo[3,4-b]pyridine-5-carbonitrile]		0.55	0.006	
CCCc1cn(-c2cnc(-n3ncc4cc(Cl)cnc43)cc2NC(C)C)nn1 [Example 282, 2-(5-chloro-1H-pyrazolo[3,4-b]pyridin-1-yl)-N-isopropyl-5-(4-propyl-1H-1,2,3-triazol-1-yl)pyridin-4-amine]		2.26	0.013	
CC(C)Nc1cc(-n2ncc3cc(C#N)cnc32)ncc1-c1cn(C2CN(C#N)C2)nn1 [Example 141, 1-(5-(1-(1-cyanoazetidin-3-yl)-1H-1,2,3-triazol-4-yl)-4-(isopropylamino)pyridin-2-yl)-1H-pyrazolo[3,4-b]pyridine-5-carbonitrile]		0.96	0.008	
